Test [1] has as its target T1, AT1R single mutants (Homo sapiens, UniProt P30556, P285A).
T1 sequence (P30556 1-359 P285A): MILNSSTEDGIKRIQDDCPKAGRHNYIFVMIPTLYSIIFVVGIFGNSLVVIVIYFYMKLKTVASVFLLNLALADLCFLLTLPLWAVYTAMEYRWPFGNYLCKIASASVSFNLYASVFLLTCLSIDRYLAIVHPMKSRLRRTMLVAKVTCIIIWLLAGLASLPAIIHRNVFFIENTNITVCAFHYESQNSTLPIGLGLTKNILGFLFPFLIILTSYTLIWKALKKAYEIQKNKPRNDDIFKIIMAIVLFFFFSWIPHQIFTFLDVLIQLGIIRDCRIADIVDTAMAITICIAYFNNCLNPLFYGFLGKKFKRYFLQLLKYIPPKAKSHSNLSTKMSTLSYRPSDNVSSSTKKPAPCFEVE
As to the kind of experiment: Ligand binding assays on AT1R single mutants, COS-1 cell membranes. The settings on record: Pro285Ala mutant.

The subject of another test is AT1R. Particulars: cited from earlier work.
Test [2] relates to AT1R single mutants. Kind of test: Ligand binding assays on AT1R single mutants, COS-1 cell membranes. Particulars: residues Tyr35, Trp84, Arg167 and Lys199.

Read-outs that look alike come from different tables or passages of the source.

The text below walks through data of article PMC4427029 (Cell, 2015).

For `CCCCc1ncc(/C=C(\Cc2cccs2)C(=O)O)n1Cc1ccc(C(=O)O)cc1` [eprosartan], the “change of binding affinity at mutant” value on AT1R single mutants [1] is given as “strong decrease”. As for `CCCCc1nc(Cl)c(CO)n1Cc1ccc(-c2ccccc2-c2nn[nH]n2)cc1` [Losartan, losartan], in the test with AT1R (ref Miura et al., 2011), the “binding affinity to AT1R compared to the later developed ARBs” value is listed as “lower” and the mode of antagonism result is given as “surmountable antagonist”. Turning to [Sar^1, Ile^8]-AngII, the “role of residues for binding (mutagenesis)” value with AT1R single mutants [2] is on record as “critical”. Regarding `CCOc1nc2cccc(C(=O)O)c2n1Cc1ccc(-c2ccccc2-c2nnn[nH]2)cc1` [candesartan], in the test with AT1R (ref Takezako et al., 2004), the “dissociation rate from AT1R” value is reported as “slow” and the mode of antagonism entry is “insurmountable inverse agonist”. Further, in the test on AT1R single mutants [2], the “role of residues for binding (mutagenesis)” value is recorded as “critical”.

For the compound `CCc1cc2c(c(CC)n1)CCC(=O)N2Cc1ccc(-c2ccccc2-c2nn[nH]n2)cc1` [ZD7155], the “potency and duration compared with losartan” value in the test on AT1R (ref Junggren et al., 1996) was “more potent and longer-lasting”.
